Series [1] in a line: Viscosity of SAIB/solvent compositions, Cannon-Fenske viscometer. The class given is physicochemical. Particulars: Cannon-Fenske viscometer of size 200 at 30° C.
On series [2], the source says: Where the controlled release core is in the form of a liquid, the amount and type of solvent used with SAIB should be optimized so as to obtain a liquid wherein the at least one therapeutically active agent is acceptably soluble.
In order to obtain a soluble liquid fill, the amounts of (i) SAIB, (ii) at least one biocompatible solvent, and (iii) at least one therapeutically active agent is optimized.

Consider `CCO` [ethanol], for which the “viscosity (centipoises value)” value in series [1] amounted to 1.3 centipoises.
On to `CC(C)Cc1ccc(C(C)C(=O)O)cc1` (centres unmarked) [ibuprofen], for which the “ethanol required to achieve solubility with SAIB” value in series [2] is reported as “approximately 15 % (by weight)”.

Source of the values: patent US20040224020A1, “Oral dosage forms with therapeutically active agents in controlled release cores and immediate release gelatin capsule coats” (priority 2002, published 2004).
